Reference: PubChem BioAssay (NCI)
“And” between values parts separate entries of the source, which are not always exact repeats. Identical values can stand only once.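 Growth conditions: 96-well plates. Treatment: test compound, 48 hours, 5 concentrations. Analysis: linear interpolation between bracketing concentrations; unreached endpoints set to highest concentration. Abbreviation: GI50, concentration required for 50% inhibition of growth. Definition used: TGI = concentration required for complete inhibition of growth.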

System: MDA-MB-468 breast
Test: NCI anticancer screen, dose series, 48 h

What does the source list for `CCN(CC)S(=O)(=O)c1ccc(-c2nc(C(Cl)Cl)nc3cc(-c4ccc(F)cc4)nn23)cc1`?
GI50: 1.78 µM; TGI: 6.46 µM

How did the GI50 turn out when `CC(C)n1nc(C#Cc2cccc(O)c2)c2c(N)ncnc21` was run?
Its GI50 is 3.62 µM and 2.22 µM.

What about the TGI of the same molecule?
The TGI was 23.8 µM and 5.51 µM.

`O=C(COc1cccc(/C=C2\COc3ccccc3C2=O)c1)c1ccccc1` was tested. Which GI50 did it give?
The GI50 was 1.78 µM.

And the TGI?
Its TGI is 4.6 µM.

How did the GI50 turn out when `CCC1=C[C@@H]2CN(C1)Cc1c([nH]c3ccccc13)[C@@](C(=O)OC)(c1cc3c(cc1OC)N(C)[C@H]1[C@@](O)(C(=O)OC)[C@H](OC(C)=O)[C@]4(CC)C=CCN5CC[C@]31[C@@H]54)C2` was run?
Its GI50 is < 0.01 µM.

And the TGI?
The TGI was 17 µM.

`Cc1cc2c(C(=O)NCC#N)cccc2n1-c1nc2c(c(NCc3ccccc3)n1)CCCC2` was tested. Which GI50 did it give?
Its GI50 is 0.206 µM.

And the TGI?
Its TGI is 0.422 µM.

For `COc1ccc(C2=NN(C=O)C(c3ccc(OS(=O)(=O)c4ccc(C)cc4)c(OC)c3)C2)cc1` (centres undefined), which GI50 is on record?
Its GI50 is 1.44 µM.

What about the TGI of the same molecule?
Its TGI is 7.7 µM.

For `CN(C)c1ccc(/C=C(\C#N)c2ccccc2)cc1`, which GI50 is on record?
Its GI50 is 0.34 µM and 0.293 µM and 0.728 µM.

How did the GI50 turn out when `O=C(CN1CCN(CCN2C(=O)c3cccc4cccc(c34)C2=O)CC1)Nc1ccc2ncsc2c1` was run?
Its GI50 is 4.79 µM.

What about the TGI of the same molecule?
Its TGI is 22.3 µM.

Which results are given for `COC1=CC(c2ccc[nH]2)=N/C1=C\c1[nH]c(C)c(C(=O)Oc2ccccc2)c1C`?
GI50: 0.368 µM; TGI: 1.94 µM

Which GI50 does the source give for `O=C(/C=C/c1ccco1)Nc1ncc(Cc2cccc(C(F)(F)F)c2)s1` here?
The GI50 was 0.111 µM.

And the TGI?
Its TGI is 6.93 µM.

`CS(=O)(=O)O[C@H]1C(=O)N(c2cc3c4ccccc4ccc3c3ccccc23)[C@@H]1c1ccccn1` was tested. Which GI50 did it give?
The GI50 was 0.269 µM.

And the TGI?
The TGI was 5.27 µM.

Which GI50 does the source give for `CCNC(=O)Oc1ccc(/C(=C(\C)c2ccc(Cl)cc2)c2ccc(OCCN(CC)CC)cc2)cc1` here?
The GI50 was 3.63 µM.

And the TGI?
The TGI was 14.6 µM.

How did the GI50 turn out when `Cc1ccc(/C=C(/C#N)n2nnc3ncccc32)cc1` was run?
The GI50 was 2.49 µM.

What about the TGI of the same molecule?
Its TGI is 11.2 µM.

Which GI50 does the source give for `COc1ccc(C2CC(c3ccccc3)=NN2C(=O)c2cc(OC)c(OC)c(OC)c2)cc1O` (centres undefined) here?
Its GI50 is 0.223 µM.

What about the TGI of the same molecule?
Its TGI is 0.613 µM.

With `FC(F)(F)c1cc(Br)cc(-c2cc(-c3ccc4c(c3)OCCO4)[nH]n2)c1` as the molecule, how does the GI50 read?
The GI50 was 0.345 µM.

What about the TGI of the same molecule?
The TGI was > 100 µM.

What does the source list for `CC[C@@]1(O)C(=O)OCc2c1cc1n(c2=O)Cc2cc3c(CN(C)C)c(O)ccc3nc2-1`?
GI50: < 0.01 µM and 0.0234 µM; TGI: 0.0426 µM and 0.108 µM

What does the source list for `O=c1c2cccc(F)c2sc2c(NCCCNCCO)nc3ccccc3c12`?
GI50: 1.63 µM; TGI: 3.26 µM

With `CCOC(=O)Nc1ccc2nc(N3CCCCCC3)sc2c1` as the molecule, how does the GI50 read?
The GI50 was 0.391 µM.

What about the TGI of the same molecule?
Its TGI is 3.11 µM.

Which GI50 does the source give for `COc1ccc(CN2C(=O)/C(=C\C(=O)c3ccc(OCCN4CCCC4)cc3)c3ccccc32)cc1` here?
The GI50 was 2.07 µM.

And the TGI?
The TGI was 4.57 µM.

For `Cc1ccc(S(=O)(=O)OCC(=O)Nc2ccc(C(=O)O)c(O)c2)cc1`, which GI50 is on record?
Its GI50 is 29.1 µM.

And the TGI?
Its TGI is 98.6 µM.

Which results are given for `COc1cc(-c2cc(-c3cccs3)c(C#N)c(N3CCOCC3)n2)cc(OC)c1OC`?
GI50: 1.99 µM; TGI: 7.06 µM

With `NS(=O)(=O)c1ccc(N=Nc2c(O)[nH]c3ccc(C(=O)NCCc4cnc[nH]4)cc23)cc1` as the molecule, how does the GI50 read?
Its GI50 is > 25 µM.

What about the TGI of the same molecule?
The TGI was > 25 µM.

With `CC(=O)OC1CC2C(C)(C)CCC[C@]2(C)C2=C1C(O)=C(C(C)C)C(=O)C2=O` (some centres undefined) as the molecule, how does the GI50 read?
Its GI50 is 1.56 µM.

And the TGI?
Its TGI is 3.81 µM.

With `COc1ccc(Cc2cc(OC)c(OC)c(OC)c2)cc1` as the molecule, how does the GI50 read?
Its GI50 is 0.312 µM.

And the TGI?
The TGI was > 100 µM.

With `CCC(CC)c1cc(N[C@H]2CC[C@H](N)C2)n2nccc2n1` as the molecule, how does the GI50 read?
The GI50 was 0.438 µM.

And the TGI?
Its TGI is 2.39 µM.

With `CC(C)C(=O)Nc1ccc(-c2nc(-c3cccc(OCCN4CCOCC4)c3)c(-c3ccnc(Br)c3)[nH]2)cc1` as the molecule, how does the GI50 read?
The GI50 was 1.89 µM.

What about the TGI of the same molecule?
The TGI was 4.04 µM.

Which results are given for `c1ccc(COCC[P+](c2ccccc2)(c2ccccc2)c2ccccc2)cc1`?
GI50: 0.239 µM; TGI: 1.95 µM

With `CCCCOC(=O)/C=C\C(=O)NC(N)=O` as the molecule, how does the GI50 read?
The GI50 was 4.29 µM.

What about the TGI of the same molecule?
The TGI was 19.4 µM.

How did the GI50 turn out when `Nc1nc(=S)c2ncn(C3OC(CO)C(O)C3O)c2[nH]1` (centres undefined) was run?
The GI50 was 0.253 µM.

And the TGI?
Its TGI is 1.69 µM.

With `CCCCCCNC(=O)Oc1ccc(/C(=C(/C)c2ccc(Cl)cc2)c2ccc(OCCN3CCCC3)cc2)cc1` as the molecule, how does the GI50 read?
The GI50 was 1.66 µM.

And the TGI?
The TGI was 3.17 µM.

Which results are given for `CON=C1C[C@]2(C[C@@H]3C[C@@H](C/C=C(\C)C[C@@H](C)/C=C/C=C4\CO[C@@H]5[C@H](O)C(C)=C[C@@H](C(=O)O3)[C@]45O)O2)O[C@H](/C(C)=C/C(C)C)[C@H]1C`?
GI50: 12.8 µM; TGI: 27.5 µM

Which GI50 does the source give for `C[C@@H](Oc1ccc(Oc2cnc3ccc(Cl)cc3n2)cc1)C(=O)O` here?
Its GI50 is 39.9 µM.

And the TGI?
The TGI was > 100 µM.

`CN1CCN(Cc2ccc(NC(=O)c3cncc(C#Cc4c(N)ncc5c(F)cccc45)c3)cc2C(F)(F)F)CC1` was tested. Which GI50 did it give?
The GI50 was 0.872 µM.

And the TGI?
Its TGI is 1.69 µM.

How did the GI50 turn out when `COc1ccc2nc3cc(Cl)ccc3c(NCCNCC(O)CO)c2c1` (centres undefined) was run?
The GI50 was 0.975 µM.

What about the TGI of the same molecule?
Its TGI is 3.16 µM.

`CCCCCCCCCCCCNC(=O)N[C@H](C(=O)N[C@H]1/C=C/CCNC(=O)/C=C/[C@H](C)NC1=O)C(C)C` was tested. Which GI50 did it give?
The GI50 was 0.0531 µM.

And the TGI?
The TGI was 0.218 µM.

Which results are given for `O=C(NCCCl)NCCN1c2nc3ccccc3cc2Sc2cc3ccccc3nc21`?
GI50: 1.43 µM; TGI: 5.42 µM

For `Cc1cncc(-c2nc(NCCc3c[nH]c4ccccc34)c3ncn(C(C)C)c3n2)c1`, which GI50 is on record?
Its GI50 is 3.02 µM.

And the TGI?
The TGI was 10.9 µM.

How did the GI50 turn out when `O=C(O)c1ccc(NCc2nc3ccccc3[nH]2)cc1` was run?
The GI50 was > 100 µM.

What about the TGI of the same molecule?
Its TGI is > 100 µM.

Which GI50 does the source give for `O=C(Nc1ccc(Oc2ccc(NC(=O)Nc3ccccc3Cl)cc2)cc1)Nc1ccccc1Cl` here?
The GI50 was 11 µM.

What about the TGI of the same molecule?
Its TGI is 49.6 µM.

Which results are given for `Clc1ccc(C2CC(c3cccc(Nc4ccncc4)c3)=NN2c2ccccc2)cc1` (centres undefined)?
GI50: 1.51 µM; TGI: 3.05 µM

Which results are given for `COc1ccc(C(C)=C(c2ccc(OCCN(C)C)cc2)c2ccc(OCCN(C)C)cc2)cc1`?
GI50: 0.489 µM; TGI: 1.44 µM

For `Nc1c(C(=O)c2ccc(C#CCN3CCOCC3)cc2)cnn1-c1ccc(F)cc1`, which GI50 is on record?
The GI50 was > 25 µM.

What about the TGI of the same molecule?
The TGI was > 25 µM.

What does the source list for `COc1cc(N2CCN(C(C)C)CC2)ccc1Nc1nc(Nc2ccc(F)cc2C(=O)NCC(O)CO)c2cc[nH]c2n1` (centres undefined)?
GI50: 4.46 µM; TGI: 20.5 µM

`COc1ccc(/C(=C/c2ccc3ccccc3c2)c2nn[nH]n2)cc1OC` was tested. Which GI50 did it give?
The GI50 was 21.5 µM.

What about the TGI of the same molecule?
The TGI was > 100 µM.

With `NC(=O)c1cc(I)ccc1NC(=O)/C=C/c1ccccc1Cl` as the molecule, how does the GI50 read?
The GI50 was 0.374 µM.

What about the TGI of the same molecule?
The TGI was 7.67 µM.

For `C[C@]12CCCN1CC1=NNC(=O)c3cc(F)cc4[nH]c2c1c34`, which GI50 is on record?
Its GI50 is 13.5 µM.

And the TGI?
The TGI was 34.5 µM.

Which results are given for `Cc1cc(O[C@@H]2O[C@@H](C)[C@H](O)[C@@H](O)[C@H]2O)c2c3c(c(O[C@@H]4O[C@@H](C)[C@H](O)[C@@H](O)[C@H]4O)cc2c1)C(=O)c1c(O)cccc1C3=O`?
GI50: 24.5 µM; TGI: > 30 µM

How did the GI50 turn out when `CC(C)(C)[Si](C)(C)OC1[C@@H](O[Si](C)(C)C(C)(C)C)[C@@H](CNC(=O)NC(=O)NC(=O)CCl)O[C@H]1n1cnc2c(NC(=O)Nc3ccccc3)ncnc21` (some centres undefined) was run?
The GI50 was 3.91 µM.

And the TGI?
Its TGI is 10.5 µM.

Which results are given for `CCN(CC)c1ccc2c(c1)Oc1nc(N)c(C#N)c(N)c1C2Sc1ccc(F)cc1` (centres undefined)?
GI50: 1.61 µM; TGI: 3.13 µM

What does the source list for `COC(=O)[C@H](Cc1ccccc1)NNC(=O)c1csc([C@@H](C[C@H](C(C)C)N(C)C(=O)[C@@H](NC(=O)[C@H]2CCCCN2C)C2CC2)OC(C)=O)n1`?
GI50: 0.00652 µM and 0.0025 µM; TGI: 25 µM and > 100 µM
